Experimental data as given in ChEMBL document CHEMBL1158195, “Antitumor germacranolides from Anvillea garcinii” (1996).
In brackets after ≈: the same amount, converted by molar mass. Activity calls are given as the source filed them. The calls are words filed in the database; no cut-off is given here.

How the values were obtained:
CCRF-CEM = test: Cytotoxicity against human CCRF-CEM cells; assay type: functional; details: read-out: ED50 (the source's name)
MOLT-4 = test: Cytotoxicity against human MOLT4 cells; assay type: functional; details: read-out: ED50 (the source's name)
HOP-62 = test: Cytotoxicity against human HOP62 cells; assay type: functional; details: read-out: ED50 (the source's name)
NCI-H522 = test: Cytotoxicity against human NCI-H522 cells; assay type: functional; details: read-out: ED50 (the source's name)
HCT-116 = test: Cytotoxicity against human HCT116 cells; assay type: functional; details: read-out: ED50 (the source's name)
SW-620 = test: Cytotoxicity against human SW620 cells; assay type: functional; details: read-out: ED50 (the source's name)
SF-268 = test: Cytotoxicity against human SF268 cells; assay type: functional; details: read-out: ED50 (the source's name)
SNB-75 = test: Cytotoxicity against human SNB75 cells; assay type: functional; details: read-out: ED50 (the source's name)
LOX IMVI = test: Cytotoxicity against human LOXIMVI cells; assay type: functional; details: read-out: ED50 (the source's name)
Malme-3M = test: Cytotoxicity against human MALME-3M cells; assay type: functional; details: read-out: ED50 (the source's name)
IGROV-1 = test: Cytotoxicity against human IGROV1 cells; assay type: functional; details: read-out: ED50 (the source's name)
OVCAR-8 = test: Cytotoxicity against human OVCAR8 cells; assay type: functional; details: read-out: ED50 (the source's name)
ACHN = test: Cytotoxicity against human ACHN cells; assay type: functional; details: read-out: ED50 (the source's name)
UO-31 = test: Cytotoxicity against human UO31 cells; assay type: functional; details: read-out: ED50 (the source's name)
DU-145 = test: Cytotoxicity against human DU145 cells; assay type: functional; details: read-out: ED50 (the source's name)
MDA-MB-231 = test: Cytotoxicity against human MDA-MB-231 cells; assay type: functional; details: read-out: ED50 (the source's name)
[1] = tested on: Human immunodeficiency virus; test: Antiviral activity against HIV in human H9 cells assessed as virus-induced cytopathic effect; assay type: functional, organism-based
PC-3 = test: Cytotoxicity against human PC3 cells; assay type: functional; details: read-out: ED50 (the source's name)
BT-549 = test: Cytotoxicity against human BT549 cells; assay type: functional; details: read-out: ED50 (the source's name)
T47D = test: Cytotoxicity against human T47D cells; assay type: functional; details: read-out: ED50 (the source's name)

## C=C1C(=O)O[C@H]2[C@H]1C[C@H](O)/C(C)=C/CC[C@@]1(C)O[C@@H]21
CCRF-CEM
  EC50: 0.8 µg/mL (≈ 3.03 µM)
MOLT-4
  EC50: 0.68 µg/mL (≈ 2.57 µM)
HOP-62
  EC50: 4.57 µg/mL (≈ 17.3 µM)
NCI-H522
  EC50: 0.45 µg/mL (≈ 1.7 µM)
HCT-116
  EC50: 3.83 µg/mL (≈ 14.5 µM)
SW-620
  EC50: 0.55 µg/mL (≈ 2.08 µM)
SF-268
  EC50: 7.76 µg/mL (≈ 29.4 µM)
SNB-75
  EC50: 8.53 µg/mL (≈ 32.3 µM)
LOX IMVI
  EC50: 2.46 µg/mL (≈ 9.31 µM)
Malme-3M
  EC50: 1.62 µg/mL (≈ 6.13 µM)
IGROV-1
  EC50: 3.91 µg/mL (≈ 14.8 µM)
OVCAR-8
  EC50: 4.75 µg/mL (≈ 18 µM)
ACHN
  EC50: 2.21 µg/mL (≈ 8.36 µM)
UO-31
  EC50: 3.88 µg/mL (≈ 14.7 µM)
DU-145
  EC50: 5.6 µg/mL (≈ 21.2 µM)
MDA-MB-231
  EC50: 4.99 µg/mL (≈ 18.9 µM)
[1]
  Activity: inactive

## C=C1C(=O)O[C@H]2[C@H]1C[C@@H](O)[C@@]1(C)O[C@@H]1CC[C@@]1(C)O[C@@H]21
CCRF-CEM
  EC50: 1.44 µg/mL (≈ 5.14 µM)
MOLT-4
  EC50: 1.67 µg/mL (≈ 5.96 µM)
HOP-62
  EC50: 4.82 µg/mL (≈ 17.2 µM)
NCI-H522
  EC50: 1.53 µg/mL (≈ 5.46 µM)
HCT-116
  EC50: 4.96 µg/mL (≈ 17.7 µM)
SW-620
  EC50: 3.72 µg/mL (≈ 13.3 µM)
SF-268
  EC50: 13.5 µg/mL (≈ 48.1 µM)
SNB-75
  EC50: 20.8 µg/mL (≈ 74 µM)
LOX IMVI
  EC50: 3.7 µg/mL (≈ 13.2 µM)
Malme-3M
  EC50: 3.28 µg/mL (≈ 11.7 µM)
OVCAR-8
  EC50: 9.72 µg/mL (≈ 34.7 µM)
ACHN
  EC50: 3.84 µg/mL (≈ 13.7 µM)
UO-31
  EC50: 4.76 µg/mL (≈ 17 µM)
PC-3
  EC50: 7.59 µg/mL (≈ 27.1 µM)
DU-145
  EC50: 10.2 µg/mL (≈ 36.5 µM)
MDA-MB-231
  EC50: 5.35 µg/mL (≈ 19.1 µM)
[1]
  Activity: inactive

## C=C1C(=O)O[C@H]2[C@H]1C[C@H](O)[C@@]1(C)O[C@@H]1CC[C@@]1(C)O[C@@H]21
CCRF-CEM
  EC50: 2.43 µg/mL (≈ 8.67 µM)
MOLT-4
  EC50: 2.83 µg/mL (≈ 10.1 µM)
HOP-62
  EC50: 5.74 µg/mL (≈ 20.5 µM)
NCI-H522
  EC50: 0.78 µg/mL (≈ 2.78 µM)
HCT-116
  EC50: 4.65 µg/mL (≈ 16.6 µM)
SW-620
  EC50: 3.81 µg/mL (≈ 13.6 µM)
SF-268
  EC50: 12.1 µg/mL (≈ 43.2 µM)
SNB-75
  EC50: 22.5 µg/mL (≈ 80.3 µM)
Malme-3M
  EC50: 3.36 µg/mL (≈ 12 µM)
IGROV-1
  EC50: 4.17 µg/mL (≈ 14.9 µM)
OVCAR-8
  EC50: 5.32 µg/mL (≈ 19 µM)
ACHN
  EC50: 5.07 µg/mL (≈ 18.1 µM)
UO-31
  EC50: 4.79 µg/mL (≈ 17.1 µM)
PC-3
  EC50: 4.98 µg/mL (≈ 17.8 µM)
DU-145
  EC50: 9.66 µg/mL (≈ 34.5 µM)
BT-549
  EC50: 3.86 µg/mL (≈ 13.8 µM)
T47D
  EC50: 5.4 µg/mL (≈ 19.3 µM)
[1]
  Activity: inactive

## C=C1C(=O)O[C@H]2[C@H]1CC(=O)/C(C)=C/CC[C@@]1(C)O[C@@H]21
CCRF-CEM
  EC50: 0.05 µg/mL (≈ 0.191 µM)
MOLT-4
  EC50: 0.07 µg/mL (≈ 0.267 µM)
HOP-62
  EC50: 0.63 µg/mL (≈ 2.4 µM)
NCI-H522
  EC50: 0.15 µg/mL (≈ 0.572 µM)
HCT-116
  EC50: 0.45 µg/mL (≈ 1.72 µM)
SW-620
  EC50: 0.21 µg/mL (≈ 0.801 µM)
SF-268
  EC50: 1.73 µg/mL (≈ 6.6 µM)
SNB-75
  EC50: 4.38 µg/mL (≈ 16.7 µM)
LOX IMVI
  EC50: 0.11 µg/mL (≈ 0.419 µM)
Malme-3M
  EC50: 0.33 µg/mL (≈ 1.26 µM)
IGROV-1
  EC50: 0.94 µg/mL (≈ 3.58 µM)
OVCAR-8
  EC50: 0.78 µg/mL (≈ 2.97 µM)
ACHN
  EC50: 0.3 µg/mL (≈ 1.14 µM)
UO-31
  EC50: 0.28 µg/mL (≈ 1.07 µM)
PC-3
  EC50: 0.9 µg/mL (≈ 3.43 µM)
DU-145
  EC50: 3.3 µg/mL (≈ 12.6 µM)
MDA-MB-231
  EC50: 0.17 µg/mL (≈ 0.648 µM)
BT-549
  EC50: 0.34 µg/mL (≈ 1.3 µM)
T47D
  EC50: 0.45 µg/mL (≈ 1.72 µM)
[1]
  Activity: inactive

## C=C1C(=O)O[C@H]2[C@H]1C[C@@H](O)/C(C)=C/CC[C@@]1(C)O[C@@H]21
CCRF-CEM
  EC50: 0.84 µg/mL (≈ 3.18 µM)
MOLT-4
  EC50: 0.94 µg/mL (≈ 3.56 µM)
HOP-62
  EC50: 1.32 µg/mL (≈ 4.99 µM)
NCI-H522
  EC50: 0.5 µg/mL (≈ 1.89 µM)
HCT-116
  EC50: 1.66 µg/mL (≈ 6.28 µM)
SW-620
  EC50: 1.08 µg/mL (≈ 4.09 µM)
SF-268
  EC50: 10.3 µg/mL (≈ 39 µM)
LOX IMVI
  EC50: 1.66 µg/mL (≈ 6.28 µM)
Malme-3M
  EC50: 1.07 µg/mL (≈ 4.05 µM)
IGROV-1
  EC50: 8.63 µg/mL (≈ 32.6 µM)
OVCAR-8
  EC50: 4.07 µg/mL (≈ 15.4 µM)
ACHN
  EC50: 1.91 µg/mL (≈ 7.23 µM)
UO-31
  EC50: 7.63 µg/mL (≈ 28.9 µM)
PC-3
  EC50: 11.6 µg/mL (≈ 44 µM)
DU-145
  EC50: 6.73 µg/mL (≈ 25.5 µM)
MDA-MB-231
  EC50: 4.49 µg/mL (≈ 17 µM)
BT-549
  EC50: 2.77 µg/mL (≈ 10.5 µM)
T47D
  EC50: 1.54 µg/mL (≈ 5.83 µM)
[1]
  Activity: inactive
